Drawing on PubChem BioAssay (NCI), this text covers TGI for eight compounds.

Among the test systems are BT-549 breast; MDA-N; 786-0 renal; SK-MEL-5 melanoma; SNB-19 CNS; SNB-75 CNS; SN12C renal; ACHN renal; HOP-62 NSCLC; NCI-H23 lung; SF-295 CNS; UO-31 renal; MALME-3M melanoma; KM12 colon; M14 melanoma; RXF 393 renal; SK-OV-3 ovarian; UACC-62 melanoma; HCT-116 colon; OVCAR-5 ovarian.
Assay in all cases: NCI anticancer screen, dose series, 48 h

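1) Cells in 96-well plates. 2) Compound, 48 h, 5 concentrations. 3) Linear interpolation between surrounding doses. 4) Unreached endpoint = highest concentration. At the TGI there is no net growth.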

In the case of `c1ccc(C(C2=Nc3cccc4cccc(c34)N2)c2ccccc2)cc1`, the TGI with BT-549 breast was 61.4 µM; with MDA-N, 49.3 µM; with 786-0 renal it was 69.9 µM; in the experiment with SK-MEL-5 melanoma, 38.2 µM; in the experiment with SNB-19 CNS, greater than 100 µM; in the experiment on SNB-75 CNS, 72.4 µM. Further, the TGI in the experiment with SN12C renal is 30.2 µM; in the experiment on ACHN renal, 50.2 µM; with HOP-62 NSCLC, 56.6 µM; with NCI-H23 lung it was greater than 100 µM; in the experiment on SF-295 CNS, 42.8 µM; with UO-31 renal, 51.2 µM. Also, the TGI worked out at 73.3 µM with MALME-3M melanoma; 49.6 µM in the experiment with KM12 colon; 65 µM in the experiment on M14 melanoma; 61.5 µM in the experiment on RXF 393 renal; 51.8 µM with SK-OV-3 ovarian; 32.8 µM in the experiment on UACC-62 melanoma.

Consider `N=C(N)c1ccc(/C=C/c2ccc(C(=N)N)cc2)cc1`, for which the TGI in the experiment with BT-549 breast, in the experiment on MDA-N, in the experiment on 786-0 renal, in the experiment with SK-MEL-5 melanoma, in the experiment on SNB-19 CNS and in the experiment with SNB-75 CNS was greater than 100 µM throughout. The TGI in the experiment with SN12C renal, in the experiment on ACHN renal, in the experiment with HOP-62 NSCLC, in the experiment on NCI-H23 lung, in the experiment on SF-295 CNS and with UO-31 renal was greater than 100 µM throughout. The TGI with MALME-3M melanoma, in the experiment on KM12 colon, in the experiment with M14 melanoma, in the experiment on HCT-116 colon, in the experiment with OVCAR-5 ovarian and in the experiment with RXF 393 renal was greater than 100 µM throughout. For the same compound, the TGI in the experiment on UACC-62 melanoma was greater than 100 µM.

On to `O=C(OCc1ccccc1)N(CCCCN(CCCNC(=O)C(F)(F)F)C(=O)OCc1ccccc1)CCCNC(=O)C(F)(F)F`, for which the TGI with BT-549 breast, in the experiment with MDA-N, in the experiment on 786-0 renal, with SK-MEL-5 melanoma, in the experiment on SNB-19 CNS and in the experiment on SNB-75 CNS was greater than 100 µM in each case. Moreover, the TGI with SN12C renal, in the experiment on ACHN renal, with HOP-62 NSCLC, with NCI-H23 lung, in the experiment on SF-295 CNS and with UO-31 renal was greater than 100 µM in each case. Moreover, the TGI in the experiment on KM12 colon, in the experiment with M14 melanoma, in the experiment on HCT-116 colon, in the experiment on OVCAR-5 ovarian, in the experiment with RXF 393 renal and in the experiment on SK-OV-3 ovarian was greater than 100 µM in each case. This compound also returned a TGI with UACC-62 melanoma greater than 100 µM.

In the case of `Nc1ncc(Br)c(NCC2(CO)CCC2)n1`, the TGI in the experiment on BT-549 breast, with MDA-N, in the experiment with 786-0 renal, with SK-MEL-5 melanoma, with SNB-75 CNS and in the experiment with SN12C renal was greater than 100 µM throughout. For the same compound, the TGI in the experiment with ACHN renal, in the experiment with HOP-62 NSCLC, with NCI-H23 lung, with SF-295 CNS, with UO-31 renal and in the experiment with MALME-3M melanoma was greater than 100 µM throughout. The TGI in the experiment with KM12 colon, with HCT-116 colon, in the experiment on OVCAR-5 ovarian, with RXF 393 renal and in the experiment with UACC-62 melanoma was greater than 100 µM in each case.

Regarding `CC1=CC(=O)[C@@H](O)[C@]2(C)[C@H]3[C@@]4(O)OC[C@]35[C@H]([C@@H](C)[C@H]4O)[C@@H](OC(=O)C(C)(C)CO)C(=O)O[C@@H]5C[C@@H]12`, the TGI in the experiment on BT-549 breast stood at 0.423 µM; with MDA-N, 0.825 µM; with 786-0 renal, 4.83 µM; with SK-MEL-5 melanoma it was 0.187 µM; with SNB-19 CNS, 0.626 µM; in the experiment on SNB-75 CNS it was 2.11 µM. The TGI with SN12C renal came to 4.5 µM; with ACHN renal, 1.33 µM; with HOP-62 NSCLC it was 1.63 µM; in the experiment with NCI-H23 lung, 0.0869 µM; in the experiment on SF-295 CNS, 1.71 µM; in the experiment on UO-31 renal, 2.44 µM. Moreover, the TGI in the experiment with KM12 colon was 0.787 µM; with M14 melanoma it was 0.446 µM; in the experiment on HCT-116 colon, 2.11 µM; in the experiment on OVCAR-5 ovarian it was 23.3 µM; with RXF 393 renal, 2.23 µM; in the experiment with SK-OV-3 ovarian, greater than 81.4 µM. Further, the TGI in the experiment with UACC-62 melanoma was 0.86 µM.

As for `COC(=O)NC(Nc1ccccn1)(C(F)(F)F)C(F)(F)F`, the TGI in the experiment on BT-549 breast, in the experiment with MDA-N, with 786-0 renal, with SK-MEL-5 melanoma, in the experiment on SNB-19 CNS and in the experiment on SNB-75 CNS was greater than 100 µM each time. Also, the TGI with ACHN renal, with HOP-62 NSCLC, in the experiment on NCI-H23 lung, in the experiment with UO-31 renal, in the experiment on MALME-3M melanoma and with KM12 colon was greater than 100 µM each time. Moreover, the TGI in the experiment on M14 melanoma, in the experiment with HCT-116 colon, in the experiment on OVCAR-5 ovarian, with RXF 393 renal, in the experiment on SK-OV-3 ovarian and with UACC-62 melanoma was greater than 100 µM in each case.

For `O=C1NC(N/N=C/C(O)C(O)C(O)C(O)CO)=N/C1=C\c1ccco1` (stereo not drawn), the TGI with BT-549 breast, with MDA-N, in the experiment on 786-0 renal, in the experiment on SK-MEL-5 melanoma, in the experiment with SNB-19 CNS and in the experiment with SNB-75 CNS was greater than 100 µM in each case. Also, the TGI with SN12C renal, with ACHN renal, with HOP-62 NSCLC, with NCI-H23 lung, in the experiment with SF-295 CNS and in the experiment on MALME-3M melanoma was greater than 100 µM throughout. For the same compound, the TGI in the experiment on KM12 colon, in the experiment with M14 melanoma, in the experiment with HCT-116 colon, with OVCAR-5 ovarian, in the experiment on RXF 393 renal and in the experiment on SK-OV-3 ovarian was greater than 100 µM each time. Further, the TGI in the experiment on UACC-62 melanoma is greater than 100 µM.

With `CN(C)c1ccc(C2CC(c3ccc4ccccc4c3O)=NN2)cc1` (stereo not drawn), the TGI in the experiment with BT-549 breast is greater than 100 µM; in the experiment with MDA-N, greater than 100 µM; with 786-0 renal, 59.7 µM; in the experiment with SK-MEL-5 melanoma it was greater than 100 µM; in the experiment on SNB-75 CNS, greater than 100 µM; with SN12C renal it was greater than 100 µM. Besides, the TGI in the experiment on ACHN renal, with HOP-62 NSCLC, in the experiment with NCI-H23 lung, with SF-295 CNS, with UO-31 renal and in the experiment on MALME-3M melanoma was greater than 100 µM throughout. Further, the TGI in the experiment with KM12 colon, in the experiment on M14 melanoma, in the experiment on HCT-116 colon, in the experiment with OVCAR-5 ovarian, in the experiment with RXF 393 renal and in the experiment with SK-OV-3 ovarian was greater than 100 µM throughout. In the experiment with UACC-62 melanoma, this compound registered a TGI greater than 100 µM.
